ChEMBL document CHEMBL3621053, “Isoxazole derivatives of 6-fluoro-N-(6-methoxybenzo[d]thiazol-2-yl)benzo[d]thiazol-2-amine and N-(pyrimidin-2-yl)benzo[d]thiazol-2-amine: regulation of cell cycle and apoptosis by p53 activation via mitochondrial-dependent pathways” (Medchemcomm, 2014)
Calls of active or inactive are those of the source. No cut-off for these calls is given here.

Tests used:
[1] = Anticancer activity against human COLO205 cells by MTT assay; assay type: functional, cell-based; conditions: COLO 205
U-937 = test: Anticancer activity against human U937 cells by MTT assay; assay type: functional, cell-based
MCF7 = test: Anticancer activity against human MCF7 cells by MTT assay; assay type: functional, cell-based
A549 = test: Anticancer activity against human A549 cells by MTT assay; assay type: functional, cell-based
COLO 205 [2] = test: Induction of DNA damage in human COLO205 cells assessed as tail DNA formation by alkaline comet assay (reference value: 0%); assay type: functional
COLO 205 [3] = test: Induction of cell cycle arrest in human COLO205 cells assessed as accumulation at G2/M phase after 24 hrs by flow cytometry; assay type: functional, cell-based
[4] = Decrease in cyclin B1 expression in human COLO205 cells by western blot analysis; assay type: functional, cell-based; conditions: COLO 205
COLO 205 [5] = test: Effect on CDK1 expression in human COLO205 cells by western blot analysis; assay type: functional, cell-based
COLO 205 [6] = test: Increase in Apaf1 expression in human COLO205 cells after 24 hrs by western blot analysis; assay type: functional, cell-based
COLO 205 [7] = test: Increase in procaspase-3 expression in human COLO205 cells after 24 hrs by western blot analysis; assay type: functional, cell-based
COLO 205 [8] = test: Increase in active caspase-3 expression in human COLO205 cells after 24 hrs by western blot analysis; assay type: functional, cell-based
COLO 205 [9] = test: Increase in caspase-9 expression in human COLO205 cells after 24 hrs by western blot analysis; assay type: functional, cell-based
[10] = Decrease in NFkappaB expression in human COLO205 cells after 24 hrs by western blot analysis; assay type: functional, cell-based; conditions: COLO 205
[11] = Decrease in Bcl2 expression in human COLO205 cells after 24 hrs by western blot analysis; assay type: functional, cell-based; conditions: COLO 205
COLO 205 [12] = test: Increase in Bax expression in human COLO205 cells after 24 hrs by western blot analysis; assay type: functional, cell-based

SMILES | IC50 (U-937) [µM] | IC50 (MCF7) [µM] | IC50 (A549) [µM] | IC50 [1] [µM] | Activity (COLO 205 [2]) [%] | Activity (COLO 205 [3]) | inhibition [4] | Activity (COLO 205 [5]) | Activity (COLO 205 [6]) | Activity (COLO 205 [7]) | Activity (COLO 205 [8]) | Activity (COLO 205 [9]) | inhibition [10] | Activity [11] | inhibition (COLO 205 [12])
COc1ccc2nc(N(Cc3cc(-c4ccc(SC(F)(F)F)cc4)no3)c3nc4ccc(F)cc4s3)sc2c1 | 42.9 | 14.1 | 26.5 | 11.1 | – | – | – | – | – | – | – | – | – | – | –
COc1ccc2nc(N(Cc3cc(-c4ccccc4F)no3)c3nc4ccc(F)cc4s3)sc2c1 | 29.4 | 28.5 | 51.8 | 13.4 | – | – | – | – | – | – | – | – | – | – | –
COc1ccc2nc(N(Cc3cc(-c4cc(OC)c(OC)c(OC)c4)no3)c3nc4ccc(F)cc4s3)sc2c1 | 44 | 26.6 | 61.9 | 11.8 | – | – | – | – | – | – | – | – | – | – | –
C#CCN(c1ncccn1)c1nc2ccccc2s1 | 15.7 | 18.3 | 17.4 | 12 | 4.194 | Active | – | – | – | – | – | – | – | Active | Active
C#CCN(c1nc2ccc(F)cc2s1)c1nc2ccc(OC)cc2s1 | 24.9 | 27.8 | 24.4 | 30.3 | – | – | – | – | – | – | – | – | – | – | –
COc1ccc2nc(N(Cc3cc(-c4ccc(OC(F)(F)F)cc4)no3)c3nc4ccc(F)cc4s3)sc2c1 | 23.1 | 17.4 | 37.1 | 9.94 | – | – | – | – | – | – | – | – | – | – | –
COc1cc([C@@H]2c3cc4c(cc3[C@@H](O[C@@H]3O[C@@H]5CO[C@@H](C)O[C@H]5[C@H](O)[C@H]3O)[C@H]3COC(=O)[C@H]23)OCO4)cc(OC)c1O [ETOPOSIDE] | 10.1 | 0.008 | 4.7 | 0.47 | 6.564 | Active | – | – | – | – | – | – | – | Active | Active

Continued, in another order:

IC50 (U-937) [µM] | IC50 (MCF7) [µM] | IC50 (A549) [µM] | SMILES | IC50 [1] [µM] | Activity (COLO 205 [2]) [%] | Activity (COLO 205 [3]) | inhibition [4] | Activity (COLO 205 [5]) | Activity (COLO 205 [6]) | Activity (COLO 205 [7]) | Activity (COLO 205 [8]) | Activity (COLO 205 [9]) | inhibition [10] | Activity [11] | inhibition (COLO 205 [12])
13.5 | 14.8 | 31.8 | FC(F)(F)Oc1ccc(-c2cc(CN(c3ncccn3)c3nc4ccccc4s3)on2)cc1 | 5.69 | – | – | – | – | – | – | – | – | – | – | –
13.9 | 30.7 | 30.4 | COc1ccc(-c2cc(CN(c3ncccn3)c3nc4ccccc4s3)on2)cc1 | 5.04 | 17.72 | Active | Active | inactive | Active | Active | Active | Active | Active | Active | Active
13.6 | 21.1 | 31.5 | Brc1ccc(-c2cc(CN(c3ncccn3)c3nc4ccccc4s3)on2)cc1 | 8.82 | – | – | – | – | – | – | – | – | – | – | –
19.4 | 17.2 | 29.8 | FC(F)(F)Sc1ccc(-c2cc(CN(c3ncccn3)c3nc4ccccc4s3)on2)cc1 | 10.1 | – | – | – | – | – | – | – | – | – | – | –
34.9 | 41.1 | 32.7 | COc1ccc2nc(N(Cc3cc(-c4ccc(Br)cc4)no3)c3nc4ccc(F)cc4s3)sc2c1 | 7 | – | – | – | – | – | – | – | – | – | – | –
26.1 | 13.4 | 28.4 | COc1cc(-c2cc(CN(c3ncccn3)c3nc4ccccc4s3)on2)cc(OC)c1OC | 10.2 | – | – | – | – | – | – | – | – | – | – | –
27.6 | 19.5 | 25.4 | Fc1ccccc1-c1cc(CN(c2ncccn2)c2nc3ccccc3s2)on1 | 13.2 | – | – | – | – | – | – | – | – | – | – | –
138 | 32.4 | 38.8 | COc1ccc(-c2cc(CN(c3nc4ccc(F)cc4s3)c3nc4ccc(OC)cc4s3)on2)cc1 | 11.4 | – | – | – | – | – | – | – | – | – | – | –
